Each structure is given as a SMILES string.

24 compounds from patent US20260131007A1, “Mannose 6-Phosphate Receptor Binding Compounds for the Degradation of Extracellular Proteins” (Avilar Therapeutics, Inc., priority 2023, published 2026) can be followed below.

The target of the test is T1, Insulin-like growth factor 2 receptor (IGF-1IR, cation-independent mannose-6-phosphate receptor, CI-MPR; hIGF-IIR) (Homo sapiens, UniProt P11717).
T1 construct: purchased R&D Systems 6418-GR
In words: HTRF-based ternary complex inhibition assay for relative affinity of IGF-IIR ligands. The note with it: competition with MTAC probe for His-tagged hIGF-IIR; biotinylated IgG1; apparent binding affinity; read-out: TCF INH (HTRF) IC50. The method, then:
The apparent binding affinity of Insulin-like growth factor 2 receptor (IGF-1IR, also called the cation- independent mannose-6-phosphate receptor (CI-MPR)) ligands was determined indirectly by competing with a probe molecule for binding to IGF-1IR. The probe is a Mannose 6-Phosphate Ligand (“Ligand”) and binds to hIGF-IIR and IgG1 to form a hIGF-IIR: Ligand: IgG1 ternary complex. The ternary complex was detected by an HTRF readout. The ternary complex is disrupted in the presence of IGF-1IR ligand, resulting in decreased HTRF signal. IGF-1IR ligands of 3-fold dilution series were prepared from 10 mM DMSO stock on a 384-well LDV microplate using Echo Acoustic Liquid Handler (Beckman Coulter Life Sciences) followed by transfer of 600 nL of the solutions to an OptiPlate 384-well microplate (PerkinElmer, 6007290). Manose-6-phosphate (M6P; J&K, 530168) and glucose-6-phosphate (G6P; Sigma, V900924) were prepared from 100 mM stock in the same manner and were used as positive and negative controls, respectively. The wells used as 0% and 100% inhibition controls were prepared by adding 600 nL DMSO. 20 nL of 50 μM MTAC probe was transferred to all wells except the wells used as 100% Inhibition control. 9.4 μL working solution containing 65.1 nM of Biotinylated-IgG1 (Viva 20211108) and 65.1 nM of His-tagged hIGF-IIR (R&D Systems, 6418-GR) in assay buffer 50 mM Tris, pH 7.5, 150 mM NaCl, 50 mM CaCl2, 0.01% Tween-20 was transferred to all wells. The plate was incubated at room temperature for 60 min with gentle shaking to allow molecular interaction to reach equilibration. Following this, 10 μL of HTRF detection solution containing 15 nM Streptavidin-d2 (PerkinElmer, 610SADLA) and 0.7 nM MAb Anti 6HIS—Tb cryptate (PerkinElmer, 61HISTLA) in PPI Terbium detection buffer (PerkinElmer, 61DB10RDF) was added. The assay plate was incubated at room temperature with gentle shaking for 60 min to allow HTRF signal to develop. The plate was gently spun on a centrifuge then placed on a EnVision plate reader (Perkin Elmer, EnVision 2104) to read fluorescence ratio of 665 nm/615 nm. Percent inhibitions were calculated with this equation: % I=100* [1−(X−100% I/(0% I−100% I)] where X is the […] in the presence of IGF-1IR ligand. The apparent binding affinity (presented as IC50) was calculated by fitting the % inhibition data with a non-linear 4-parameter inhibition equation using GraphPad Prism (GraphPad Software, LLC; version 9.4.1).
(TR-FRET usually uses a lanthanide donor and a delayed reading to cut background.)
For the compound `C#CCCCCNC(=O)Nc1ccc2c(c1)Cc1cc(O[C@H]3O[C@H](CCP(=O)(O)O)[C@@H](O)[C@H](O)[C@@H]3O)ccc1-2` [Compound A83, (2-((2R,3S,4S,5S,6R)-6-((7-(3-(hex-5-yn-1-yl)ureido)-9H-fluoren-2-yl)oxy)-3,4,5-trihydroxytetrahydro-2H-pyran-2-yl)ethyl)phosphonic acid], the IC50 (commonly the concentration needed to halve the response being measured) was less than 10 µM. Consider `C#CCP(=O)(O)CC[C@H]1OC(Oc2ccc(OC)cc2)[C@@H](O)[C@@H](O)[C@@H]1O` (stereo partly drawn) [Compound A77, prop-2-yn-1-yl(2-((2R,3S,4S,5S)-3,4,5-trihydroxy-6-(4-methoxyphenoxy)tetrahydro-2H-pyran-2-yl)ethyl)phosphinic acid], for which the IC50 fell in the range of 10 to 100 µM. In the case of `O=P(O)(O)CC[C@H]1OC(C#Cc2ccccc2)[C@@H](O)[C@@H](O)[C@@H]1O` (stereo partly drawn) [Compound A16, (2-((2R,3S,4S,5S)-3,4,5-trihydroxy-6-(phenylethynyl)tetrahydro-2H-pyran-2-yl)ethyl)phosphonic acid], the IC50 was less than 10 µM. Regarding `O=P(O)(CC[C@H]1O[C@H](Oc2ccc3c(c2)Cc2ccccc2-3)[C@@H](O)[C@@H](O)[C@@H]1O)Cc1c(F)cccc1F` [Compound A79, (2-((2R,3S,4S,5S,6R)-6-((9H-fluoren-2-yl)oxy)-3,4,5-trihydroxytetrahydro-2H-pyran-2-yl)ethyl) (2,6-difluorobenzyl)phosphinic acid], the IC50 was less than 10 µM. Take `O=P(O)(O)CC[C@H]1O[C@H](c2cn(C3CCNCC3)nn2)[C@@H](O)[C@@H](O)[C@@H]1O` [Compound A86, (2-((2R,3S,4S,5S,6R)-3,4,5-trihydroxy-6-(1-(piperidin-4-yl)-1H-1,2,3-triazol-4-yl)tetrahydro-2H-pyran-2-yl)ethyl)phosphonic acid]: the IC50 was less than 10 µM.

Turning to `N#CNC(=O)CC[C@H]1O[C@H](Oc2ccccc2)[C@@H](O)[C@@H](O)[C@@H]1O` [Compound A3, N-cyano-3-((2R,3S,4S,5S,6R)-3,4,5-trihydroxy-6-phenoxytetrahydro-2H-pyran-2-yl)propanamide], the IC50 lay within 10 to 100 µM. With `COc1ccc(O[C@H]2O[C@H](CCP(=O)(O)Cc3c(F)ccc(F)c3F)[C@@H](O)[C@H](O)[C@@H]2O)cc1` [Compound A54, (2,3,6-trifluorobenzyl) (2-((2R,3S,4S,5S)-3,4,5-trihydroxy-6-(4-methoxyphenoxy)tetrahydro-2H-pyran-2-yl)ethyl)phosphinic acid], the IC50 was less than 10 µM. For the compound `C[Si](C)(C)C#C[C@H]1O[C@H](CCP(=O)(O)O)[C@@H](O)[C@H](O)[C@@H]1O` [Compound A18, (2-((2R,3S,4S,5S,6R)-3,4,5-trihydroxy-6-((trimethylsilyl)ethynyl)tetrahydro-2H-pyran-2-yl)ethyl)phosphonic acid], the 50% inhibitory concentration (IC50) was less than 10 µM.

For the compound `COc1ccc(OC2O[C@H](CCP(=O)(O)Cc3ccccc3)[C@@H](O)[C@H](O)[C@@H]2O)cc1` (stereo partly drawn) [Compound A81, benzyl(2-((2R,3S,4S,5S)-3,4,5-trihydroxy-6-(4-methoxyphenoxy)tetrahydro-2H-pyran-2-yl)ethyl)phosphinic acid], the IC50 is less than 10 µM. As to `COc1ccc(OC2O[C@H](CCP(=O)(O)Cc3ccccn3)[C@@H](O)[C@H](O)[C@@H]2O)cc1` (stereo partly drawn) [Compound A50, (pyridin-2-ylmethyl) (2-((2R,3S,4S,5S)-3,4,5-trihydroxy-6-(4-methoxyphenoxy)tetrahydro-2H-pyran-2-yl)ethyl)phosphinic acid], the IC50 was less than 10 µM. Consider `COc1ccc(OC2O[C@H](CCP(=O)(O)CC#N)[C@@H](O)[C@H](O)[C@@H]2O)cc1` (stereo partly drawn) [Compound A48, (cyanomethyl) (2-((2R,3S,4S,5S)-3,4,5-trihydroxy-6-(4-methoxyphenoxy)tetrahydro-2H-pyran-2-yl)ethyl)phosphinic acid], for which the IC50 lay within 10 to 100 µM. Turning to `CC#CCP(=O)(O)CC[C@H]1OC(Oc2ccc(OC)cc2)[C@@H](O)[C@@H](O)[C@@H]1O` (stereo partly drawn) [Compound A53, but-2-yn-1-yl(2-((2R,3S,4S,5S)-3,4,5-trihydroxy-6-(4-methoxyphenoxy)tetrahydro-2H-pyran-2-yl)ethyl)phosphinic acid], the IC50 is 10 to 100 µM. As to `C#C[C@H]1O[C@H](CCP(=O)(O)O)[C@@H](O)[C@H](O)[C@@H]1O` [Compound A20, (2-((2R,3S,4S,5S,6R)-6-ethynyl-3,4,5-trihydroxytetrahydro-2H-pyran-2-yl)ethyl)phosphonic acid], the IC50 is less than 10 µM. Consider `CO[C@@H]1O[C@H](CCS(=O)(=O)Nc2ncccn2)[C@@H](O)[C@H](O)[C@@H]1O` [Compound A8, N-(pyrimidin-2-yl)-2-((2R,3S,4S,5S,6R)-3,4,5-trihydroxy-6-methoxytetrahydro-2H-pyran-2-yl)ethane-1-sulfonamide], for which the IC50 was 10 to 100 µM.

For `C#CCOc1cccc(CP(=O)(O)CC[C@H]2OC(Oc3ccc(OC)cc3)[C@@H](O)[C@@H](O)[C@@H]2O)c1` (stereo partly drawn) [Compound A59, (3-prop-2-ynoxyphenyl)methyl-[2-[(2R,3S,4S,5S)-3,4,5-trihydroxy-6-(4-methoxyphenoxy)tetrahydropyran-2-yl]ethyl]phosphinic acid], the IC50 was less than 10 µM. Turning to `O=P(O)(O)CC[C@H]1O[C@H](Oc2ccc3c(c2)Cc2cc(O)ccc2-3)[C@@H](O)[C@@H](O)[C@@H]1O` [Compound A22, (2-((2R,3S,4S,5S,6R)-3,4,5-trihydroxy-6-((7-hydroxy-9H-fluoren-2-yl)oxy)tetrahydro-2H-pyran-2-yl)ethyl)phosphonic acid], the IC50 was less than 10 µM. Take `O=P(O)(O)CC[C@H]1O[C@H](c2cn(CCc3ccccc3)nn2)[C@@H](O)[C@@H](O)[C@@H]1O` [Compound A17, (2-((2R,3S,4S,5S,6R)-3,4,5-trihydroxy-6-(1-phenethyl-1H-1,2,3-triazol-4-yl)tetrahydro-2H-pyran-2-yl)ethyl)phosphonic acid]: the IC50 is less than 10 µM. Next, `COc1ccc(OC2O[C@H](CCP(=O)(O)CC3CC3(F)F)[C@@H](O)[C@H](O)[C@@H]2O)cc1` (stereo partly drawn) [Compound A58, ((2,2-difluorocyclopropyl)methyl) (2-((2R,3S,4S,5S)-3,4,5-trihydroxy-6-(4-methoxyphenoxy)tetrahydro-2H-pyran-2-yl)ethyl)phosphinic acid]: less than 10 µM. Turning to `CCCP(=O)(O)CC[C@H]1OC(Oc2ccc(OC)cc2)[C@@H](O)[C@@H](O)[C@@H]1O` (stereo partly drawn) [Compound A57, propyl(2-((2R,3S,4S,5S)-3,4,5-trihydroxy-6-(4-methoxyphenoxy)tetrahydro-2H-pyran-2-yl)ethyl)phosphinic acid], the IC50 was less than 10 µM. In the case of `NC[C@H]1O[C@H](Oc2ccccc2)[C@@H](O)[C@@H](O)[C@@H]1O` [Compound A2, (2R,3S,4S,5S,6R)-2-(aminomethyl)-6-phenoxytetrahydro-2H-pyran-3,4,5-triol], the IC50 fell in the range of 10 to 100 µM. Next, `O=C(NS(=O)(=O)CC[C@H]1O[C@H](O)[C@@H](O)[C@@H](O)[C@@H]1O)c1ccccc1` [Compound A12, N-((2-((2R,3S,4S,5S,6S)-3,4,5,6-tetrahydroxytetrahydro-2H-pyran-2-yl)ethyl)sulfonyl)benzamide]: 100 to 300 µM; `C=CCP(=O)(O)CC[C@H]1OC(Oc2ccc(OC)cc2)[C@@H](O)[C@@H](O)[C@@H]1O` (stereo partly drawn) [Compound A52, allyl(2-((2R,3S,4S,5S)-3,4,5-trihydroxy-6-(4-methoxyphenoxy)tetrahydro-2H-pyran-2-yl)ethyl)phosphinic acid]: 10 to 100 µM; `O=P(O)(CC[C@H]1OC(O)[C@@H](O)[C@@H](O)[C@@H]1O)Cc1c(F)cccc1F` (stereo partly drawn) [Compound A60, (2,6-difluorobenzyl) (2-((2R,3S,4S,5S)-3,4,5,6-tetrahydroxytetrahydro-2H-pyran-2-yl)ethyl)phosphinic acid]: 10 to 100 µM. On to `COc1ccc(O[C@H]2O[C@H](CCP(=O)(O)Cc3c(F)cccc3Cl)[C@@H](O)[C@H](O)[C@@H]2O)cc1` [Compound A51, (2-chloro-6-fluorobenzyl) (2-((2R,3S,4S,5S,6R)-3,4,5-trihydroxy-6-(4-methoxyphenoxy)tetrahydro-2H-pyran-2-yl)ethyl)phosphinic acid], for which the IC50 was less than 10 µM.
